Data on seven molecules can be found in ChEMBL document CHEMBL4732132, “Stereoselective synthesis of novel 2'-(S)-CCG-IV analogues as potent NMDA receptor agonists” (Eur J Med Chem, 2021).

The nature of data set [1]: Agonist activity at recombinant rat GluN1a/GluN2B receptor expressed in Xenopus laevis oocytes assessed as increase in glycine/glutamate-induced channel current at -40 mV holding potential by two-electrode voltage clamp method. Type of data set: cell-based, Oocyte. On the technique in general: Two-electrode voltage clamp is typically applied to oocytes expressing channels or transporters.

Data set [2] can be described thus: Agonist activity at recombinant rat GluN1a/GluN2B receptor expressed in Xenopus laevis oocytes assessed as increase in glycine/glutamate-induced channel current at -40 mV holding potential by two-electrode voltage clamp method relative to control. The following applies: for Emax: Rattus norvegicus, Oocyte, read-out: Efficacy. The class given is cell-based, Oocyte.

Data set [3] in a line: Agonist activity at recombinant rat GluN1a/GluN2D receptor expressed in Xenopus laevis oocytes assessed as increase in glycine/glutamate-induced channel current at -40 mV holding potential by two-electrode voltage clamp method. Type of data set: cell-based, Oocyte.
Data set [4] is described as follows: Agonist activity at recombinant rat GluN1a/GluN2C receptor expressed in Xenopus laevis oocytes assessed as increase in glycine/glutamate-induced channel current at -40 mV holding potential by two-electrode voltage clamp method. The class given is cell-based, Oocyte.
Data set [5] can be described thus: Agonist activity at recombinant rat GluN1a/GluN2A receptor expressed in Xenopus laevis oocytes assessed as increase in glycine/glutamate-induced channel current at -40 mV holding potential by two-electrode voltage clamp method. The class given is cell-based, Oocyte.
Data set [6] can be described thus: Agonist activity at recombinant rat GluN1a/GluN2D receptor expressed in Xenopus laevis oocytes assessed as increase in glycine/glutamate-induced channel current at -40 mV holding potential by two-electrode voltage clamp method relative to control. Type of data set: cell-based, Oocyte. The following applies: for Emax: Rattus norvegicus, Oocyte, read-out: Efficacy.

In data set [7] the test system is Oocyte. Put plainly: Agonist activity at recombinant rat GluN1a/GluN2C receptor expressed in Xenopus laevis oocytes assessed as increase in glycine/glutamate-induced channel current at -40 mV holding potential by two-electrode voltage clamp method relative to control. The class given is cell-based.
Data set [8] relates to Oocyte. Put plainly: Agonist activity at recombinant rat GluN1a/GluN2A receptor expressed in Xenopus laevis oocytes assessed as increase in glycine/glutamate-induced channel current at -40 mV holding potential by two-electrode voltage clamp method relative to glutamate. The class given is cell-based.
Where [9] appears, read: Rattus norvegicus, Oocyte, read-out: EC50.

Active and inactive are the calls of the source. The rule behind the calls is not given here.

Take `C=CCOC[C@]1(C(=O)O)C[C@H]1[C@H](N)C(=O)O`: the EC50 in data set [1] (setting [9]) is 1.5 µM; in data set [3] (setting [9]), 0.7 µM; in data set [4] (setting [9]), 2.6 µM; in data set [5] (setting [9]), 3.7 µM. In addition, the Emax in data set [2] was determined as 111%; in data set [6], 98.7%. The results for the Efficacy in the data set with Oocyte [7] (filed as agonist) and in the data set on Oocyte [8] (filed as agonist) were 84.9% and 73.9%, respectively.

For the molecule `CCCC[C@]1(C(=O)O)C[C@H]1[C@H](N)C(=O)O`, the EC50 worked out at 10 µM in data set [1] (setting [9]), 3.3 µM in data set [3] (setting [9]), 16 µM in data set [4] (setting [9]) and 30 µM in data set [5] (setting [9]). Moreover, the Emax was 107% in data set [2] and 94% in data set [6]. Further, the figures for the Efficacy in the data set with Oocyte [7] (filed as agonist) and in the data set with Oocyte [8] (filed as agonist) were 85% and 65%, respectively.

In the case of `N[C@H](C(=O)O)[C@@H]1C[C@]1(CO)C(=O)O`, the EC50 in data set [1] (setting [9]) turned out to be 1.1 µM; in data set [3] (setting [9]), 0.4 µM; in data set [4] (setting [9]) it was 1.9 µM; in data set [5] (setting [9]) it was 3 µM. The Emax in data set [2] is 116%; in data set [6], 104%. Further, the Efficacy in the data set with Oocyte [7] (filed as agonist) came to 98.2%; in the data set on Oocyte [8] (filed as agonist) it was 91%.

`C[C@]1(C(=O)O)C[C@H]1[C@H](N)C(=O)O`: the EC50 in data set [1] (setting [9]) came out at 0.08 µM; in data set [3] (setting [9]), 0.03 µM; in data set [4] (setting [9]), 0.11 µM; in data set [5] (setting [9]), 0.26 µM. Moreover, the Emax in data set [2] turned out to be 123%; in data set [6], 111%. The Efficacy in the data set on Oocyte [7] (filed as agonist) was determined as 90%; in the data set on Oocyte [8] (filed as agonist) it was 99%.

As for `[N-]=[N+]=NC[C@]1(C(=O)O)C[C@H]1[C@H](N)C(=O)O`, the EC50 in data set [1] (setting [9]) is 0.9 µM; in data set [3] (setting [9]) it was 0.4 µM; in data set [4] (setting [9]) it was 2.7 µM; in data set [5] (setting [9]) it was 4.5 µM. Besides, the Emax stood at 92.6% in data set [2] and 76.9% in data set [6]. Further, the results for the Efficacy in the data set on Oocyte [7] (filed as agonist) and in the data set on Oocyte [8] (filed as agonist) were 62.7% and 81.7%, respectively.

`N[C@H](C(=O)O)[C@@H]1C[C@]1(COCc1ccccc1)C(=O)O`: the EC50 result in data set [1] (oocyte), in data set [3] (oocyte), in data set [4] (oocyte) and in data set [5] (oocyte) was “Not Active” in each case. Besides, the Efficacy entry was “Not Active” in data set [2] (rat, oocyte) and “Not Active” in data set [6] (rat, oocyte). The Efficacy result in the data set on Oocyte [7] and with Oocyte [8] was “inactive” throughout.

For the molecule `N[C@H](C(=O)O)[C@@H]1C[C@]1(CS)C(=O)O`, the concentration for a half-maximal effect (EC50) worked out at 1 µM in data set [1] (setting [9]), 0.3 µM in data set [3] (setting [9]), 2.5 µM in data set [4] (setting [9]) and 4.8 µM in data set [5] (setting [9]). In addition, the figures for the Emax in data set [2] and in data set [6] were 103% and 93%, respectively. In addition, the Efficacy was 86% in the data set on Oocyte [7] (filed as agonist) and 87% with Oocyte [8] (filed as agonist).

Broadly, the EC50 is the concentration at which the effect is half-maximal.
